The values below come from patent US20230002446A1, “ANTI-INFLAMMATORY AGENTS” (The University of Sydney, priority 2019, published 2023).

Where a SMILES comes first, the peptide text is derived from it. [ ]: non-standard residue; d: D form. AEEA = NCCOCCOCC(=O)O

The subject of data set [1] is primary murine splenic dendritic cells. Put plainly: LPS-stimulated murine splenocytes, DC activation (flow cytometry). It counts as cell-based. How it is done: (§1) FIG. 5—Peptide administration reduces the activation of pro-inflammatory DCs and macrophages. (A) C57BL/6 murine splenocytes were stimulated with LPS±peptide RP23 (SEQ ID NO:12) and expression of activation markers on DCs was assessed by flow cytometry. (B) Bone marrow derived murine macrophages were incubated with peptide RP23 (30 mins) and stimulated with LPS (overnight). Positive controls were stimulated with LPS only. Negative controls were unstimulated. Inflammatory cytokine production was assessed by ELISA. (C) CD14+ cells were isolated from human blood and differentiated into macrophages by culturing with human serum. Cells were incubated with peptide RP23 (30 mins), then stimulated overnight with LPS (left panel) or imiquimod (right panel). Inflammatory cytokine (IL-6 or IL-12/23) production was assessed by ELISA. Representative of 6 donors. Data are presented as mean±S.E.M. Statistical significance was determined by ANOVA with Dunnett's multiple comparison test, *p<0.05, **p<0.01, ***p<0.001.
(§2) Using an in vitro culture system, it was determined whether RP23 could suppress the activity of specific pro-inflammatory immune cells. […] The culture of murine bone marrow derived macrophages with RP23 led to reduced IL-6, MCP-1 and TNF release after LPS-stimulation (FIG. 5b). […]
(A flow cytometer gives signals particle by particle.)

Data set [2] concerns full thickness human skin explants.
Method: RP23^AF594 in a stock emulsion was applied topically to full thickness human skin explants and cultured for 24 hours. Frozen sections were analysed by fluorescence microscopy.
RP23^AF594 was formulated for topical application in an adapted stock emulsion consisting of dimethicone, liquid paraffin, 4-chloro-3-methylphenol, cetrimide and octadecan-1-ol. This was applied topically (7 mg/cm^2, 10 nmol RP23) to full thickness human skin explants and cultured for 24 hours. Frozen sections were prepared for and analysed by fluorescence microscopy.
Data set [3] concerns primary human blood derived macrophages. Description: LPS- or imiquimod-stimulated human blood derived macrophages, cytokine ELISA. The note with it: after stimulation with either LPS or imiquimod. It counts as cell-based. The method, then: as §1, §2
The test system of data set [4] is murine bone marrow derived macrophages. Put plainly: LPS-stimulated bone marrow derived macrophages, cytokine ELISA. The note with it: after LPS-stimulation. The class given is cell-based. The method, then: as §1
Using an in vitro culture system, it was determined whether RP23 could suppress the activity of specific pro-inflammatory immune cells. […] The culture of murine bone marrow derived macrophages with RP23 led to reduced IL-6, MCP-1 and TNF release after LPS-stimulation (FIG. 5b). Similarly, primary human blood derived macrophages had reduced IL-6 and IL-12/23 release after stimulation with either LPS or imiquimod (FIG. 5c).
Background: ELISA stands for enzyme-linked immunosorbent assay.

The subject of data set [5] is mice. Description: tolerability of injection in mice. The class given is in vivo. The note with it: even 10 nmol daily for 6 days sub-cutaneous (data not shown).
Data set [6] relates to C57BL/6 mice. Description: oxazolone murine model of atopic dermatitis. The class given is in vivo. As to conditions: injection at day -1, or both day -7 and day -1; compared to PBS. The source says:
FIG. 13. RP23 treatment reduces inflammation in a murine model of atopic dermatitis. Ears and shaved backs of C57BL/6 female mice were sensitised (day 0) and challenged (day 7, 10, 14, 17, 19, 21, 23, 25 and 27) with topical application of the irritant oxazolone or vehicle only. Injection of mice with RP23 at day −1, or both day −7 and day −1, is compared to injection with PBS only (day −7 and day −1) or topical application of steroid (0.01% betamethasone dipropionate, 30 mgs) applied on the back at the time of every oxazolone application. Ear thickness was measured with manual callipers. Data are the means+/−SEM (n=5).
Ears and shaved backs of C57BL/6 female mice were sensitised (day 0) and challenged (day 7, 10, 14, 17, 19, 21, 23, 25 and 27) with topical application of the irritant oxazolone or vehicle only. Injection of mice with RP23 at day −1, or both day −7 and day −1, was compared to injection with PBS only (day −7 and day −1) or topical application of steroid (0.01% betamethasone dipropionate, 30 mgs) applied on the back at the time of every oxazolone application. Ear thickness was measured with manual callipers.

For `CSCC[C@H](NC(=O)COCCOCCNC(=O)[C@H](CCCCN)NC(=O)[C@H](CCCCN)NC(=O)[C@H](CCCCN)NC(=O)[C@@H](N)CCCCN)C(=O)N[C@H](C(=O)N1CCC[C@H]1C(=O)NCC(=O)N[C@H](C(=O)N[C@@H](CCC(N)=O)C(=O)N[C@@H](CO)C(=O)N1CCC[C@H]1C(=O)N[C@@H](Cc1ccccc1)C(=O)N[C@@H](Cc1ccccc1)C(=O)N[C@@H](CC(C)C)C(=O)N[C@@H](CC(C)C)C(=O)N[C@@H](CC(C)C)C(=O)N[C@@H](CC(C)C)C(=O)N[C@@H](CC(C)C)C(=O)N[C@H](C(=O)N[C@H](C(=O)N[C@@H](CC(C)C)C(=O)N[C@H](C(=O)N[C@H](C(=O)N[C@H](C(=O)O)C(C)C)C(C)C)[C@@H](C)O)C(C)C)[C@@H](C)O)[C@@H](C)O)[C@@H](C)O` [RP23] (H-KKKK[AEEA]MTPGTQSPFFLLLLLTVLTVV-OH), the “expression of surface activation markers” value in data set [1] (LPS stimulation) is listed as “reduced”. The “secretion of inflammatory chemokines” value in data set [1] (data not shown) is on record as “reduced the secretion of inflammatory chemokines”. For the same molecule, in data set [2], the “penetration of human skin when topically applied” value is “able to penetrate the stratum corneum and basement membrane”. In data set [3], the IL-6 release result is given as “reduced” and the IL-12/23 release result is given as “reduced”. In addition, in data set [4], the IL-6 release entry was “reduced”, the MCP-1 release result is “reduced” and the TNF release entry is on record as “reduced”. For the same molecule, the adverse reactions result in data set [5] is given as “No adverse reactions of any kind”. Further, in data set [6], the “inflammation in the ears (ear thickness)” value was “reduced inflammation in the ears”.
